Literature values, collected in patent US20120093882A1 (priority 2009, published 2012).

Experiments:
[1] = after oral administration
[2] = dissolved in ultra-pure water, natural midsummer sunlight, maximum of 145 h

absorption [1]: almost completely absorbed
hepatic first-pass metabolism [1]: 50%
degradation on exposure to sunlight [2]: Fast degradation
Structure (SMILES): O=C(O)Cc1ccccc1Nc1c(Cl)cccc1Cl [Diclofenac]
